In US20020182594A1, “Chemomagnetic retrieval of CMV and CMV infected cells” (priority 2001, published 2002):

B1: fractalkine: the CX3C chemokine, expressed on certain endothelial cell surfaces and dendritic cells; native ligand of US28 (protein, UniProt P78423 25-397, looked up)
Fractalkine: QHHGVTKCNITCSKMTSKIPVALLIHYQQNQASCGKRAIILETRQHRLFCADPKEQWVKDAMQHLDRQAAALTRNGGTFEKQIGEVKPRTTPAAGGMDESVVLEPEATGESSSLEPTPSSQEAQRALGTSPELPTGVTGSSGTRLPPTPKAQDGGPVGTELFRVPPVSTAATWQSSAPHQPGPSLWAEAKTSEAPSTQDPSTQASTASSPAPEENAPSEGQRVWGQGQSPRPENSLEREEMGPVPAHTDAFQDWGPGSMAHVSVVPVSSEGTPSREPVASGSWTPKAEEPIHATMDPQRLGVLITPVPDAQAATRRQAVGLLAFLGLLFCLGVAMFTYQSLQGCPRKMAGEMAEGLRYIPRSCGSNSYVLVPV

Key:
[1] = target: T1, US28 (Human cytomegalovirus, UniProt P69332); assay: Inhibition of binding of native chemokine ligands (fractalkine, eotaxin) to US28; design: species or system human CMV (HCMV); conditions: native chemokine ligands such as fractalkine and eotaxin, among others
T1 sequence (P69332 whole entry): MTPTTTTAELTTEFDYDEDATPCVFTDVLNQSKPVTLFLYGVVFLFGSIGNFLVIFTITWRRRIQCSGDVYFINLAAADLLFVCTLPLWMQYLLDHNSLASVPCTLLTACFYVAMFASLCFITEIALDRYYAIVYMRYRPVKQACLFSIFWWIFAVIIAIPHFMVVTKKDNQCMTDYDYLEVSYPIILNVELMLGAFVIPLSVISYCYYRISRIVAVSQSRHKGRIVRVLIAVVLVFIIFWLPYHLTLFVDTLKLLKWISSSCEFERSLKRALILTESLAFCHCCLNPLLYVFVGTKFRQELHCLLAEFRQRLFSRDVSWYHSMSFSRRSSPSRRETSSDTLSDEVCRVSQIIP

[2] = system: chemokine receptors; assay: Binding specificity among chemokine receptors tested
[3] = target: T1, US28; assay: Binding affinity of fractalkine to US28; design: species or system human CMV (HCMV); conditions: read-out: K1 (affinity of binding to US28)

Row | Molecule | inhibition of the binding of native chemokine ligands to US28 [1] | specificity of binding to US28 among all chemokine receptors tested [2] | Ki [3] [nM]
1 | CCN1CCC[C@H]1CNC(=O)c1c(OC)ccc(I)c1O [S(−)-IBZM, S(−)-3-Iodo-2-hydroxy-6-methoxy-N[(1-ethyl-2-pyrrolidinyl)methyl]benzamide] | effective inhibitor | bind specifically to US28 | 
2 | B1 |  |  | ~0.05
